According to ChEMBL document CHEMBL3352746, “Synthesis and anticancer activity of quinopimaric and maleopimaric acids’ derivatives” (Bioorg Med Chem, 2014):

Columns and labels:
[1] = system: Lewis lung carcinoma cell line; assay: Antitumor activity against mouse LLC cells implanted in mouse assessed as tumor growth inhibition at 40 mg/kg, ip dosed daily for 5 days measured 5 days after treatment termination; assay type: functional; conditions: 120 h, route intraperitoneal, read-out: TGI
[2] = Antitumor activity against mouse CA-755 cells implanted in mouse assessed as tumor growth inhibition at 40 mg/kg, ip dosed daily for 5 days measured 16 days after treatment termination; assay type: functional; conditions: CA-755, ip, route intraperitoneal, read-out: TGI
HT-29 = assay: Growth inhibition of human HT-29 cells; assay type: functional
[3] = Growth inhibition of human SF539 cells; assay type: functional
SNB-19 = assay: Growth inhibition of human SNB19 cells; assay type: functional
[4] = Antitumor activity against mouse CA-755 cells implanted in mouse assessed as tumor growth inhibition at 40 mg/kg, ip dosed daily for 5 days measured 1 day after treatment termination; assay type: functional; conditions: CA-755, ip, route intraperitoneal, read-out: TGI
MDA-MB-231 = assay: Growth inhibition of human MDA-MB-231 cells; assay type: functional
Mus musculus [5] = assay: Toxicity in mouse CA-755 cells implanted mouse assessed as mouse mortality at 40 mg/kg, ip dosed daily for 5 days; assay type: organism-based; parameters: dose 40 mg/kg, route intraperitoneal; conditions: in vivo, 120 h
[6] = Growth inhibition of human MOLT4 cells; assay type: functional
Mus musculus [7] = assay: Toxicity in mouse P388 cells implanted mouse assessed as mean ascites volume at 10 mg/kg, ip dosed daily for 5 days administered 24 hrs after tumor implantation; assay type: organism-based; parameters: dose 10 mg/kg, route intraperitoneal; conditions: in vivo
Mus musculus [8] = assay: Toxicity in mouse LLC cells implanted mouse assessed as mouse mortality at 40 mg/kg, ip dosed daily for 5 days; assay type: organism-based; parameters: dose 40 mg/kg, route intraperitoneal; conditions: in vivo, 120 h
MDA-MB-468 = assay: Growth inhibition of human MDA-MB-468 cells; assay type: functional
K562 = assay: Growth inhibition of human K562 cells; assay type: functional
[9] = Growth inhibition of human UO31 cells; assay type: functional
A549 = assay: Growth inhibition of human A549/ATCC cells; assay type: functional
U-251 = assay: Growth inhibition of human U251 cells; assay type: functional
[10] = Antitumor activity against mouse CA-755 cells implanted in mouse assessed as increase in life span at 40 mg/kg, ip dosed daily for 5 days; assay type: functional; conditions: CA-755, ip, 120 h, route intraperitoneal
KM12 = assay: Growth inhibition of human KM12 cells; assay type: functional
[11] = read-out: pLC50 (the source's name) (converted)

COC(=O)[C@]1(C)CCC[C@]2(C)[C@H]3C[C@H]4C(C(C)C)=C[C@]3(CC[C@H]21)[C@@H]1/C(=N/O)CC/C(=N\O)[C@@H]14
inhibition in vivo at 40 mg/kg [1]: 33% | inhibition in vivo at 40 mg/kg [2]: 32% | GI50 (HT-29): 2.69 µM | CC50 (HT-29; [11]): 52.5 µM | TGI (HT-29; read-out: pTGI (converted)): 7.94 µM | GI50 ([3]; SF-539): 9.12 µM | CC50 ([3]; SF-539, read-out: pLC50 (the source's name) (converted)): 46.8 µM | TGI ([3]; SF-539, read-out: pTGI (converted)): 21.4 µM | GI50 (SNB-19): 11.5 µM | CC50 (SNB-19; [11]): 55 µM | TGI (SNB-19; read-out: pTGI (converted)): 25.1 µM | inhibition in vivo at 40 mg/kg [4]: 83% | GI50 (MDA-MB-231): 7.24 µM | CC50 (MDA-MB-231; [11]): 56.2 µM | TGI (MDA-MB-231; read-out: pTGI (converted)): 22.4 µM | Activity (Mus musculus [5]): Non-toxic | GI50 ([6]; MOLT-4): 1.86 µM | CC50 ([6]; MOLT-4, read-out: pLC50 (the source's name) (converted)): 33.9 µM | TGI ([6]; MOLT-4, read-out: pTGI (converted)): 6.31 µM | Activity (Mus musculus [7]): 1.3 mL | Activity (Mus musculus [8]): Non-toxic | GI50 (MDA-MB-468): 4.68 µM | CC50 (MDA-MB-468; [11]): 64.6 µM | TGI (MDA-MB-468; read-out: pTGI (converted)): 20 µM | GI50 (K562; K562): 3.24 µM | CC50 (K562; K562, read-out: pLC50 (converted)): > 100 µM | TGI (K562; K562, read-out: pTGI (converted)): 11.7 µM | GI50 ([9]; UO-31): 4.9 µM | CC50 ([9]; UO-31, read-out: pLC50 (the source's name) (converted)): 75.9 µM | TGI ([9]; UO-31, read-out: pTGI (converted)): 20.9 µM | GI50 (A549; A549): 3.09 µM | CC50 (A549; A549, read-out: pLC50 (converted)): > 100 µM | TGI (A549; A549, read-out: pTGI (converted)): 10.5 µM | GI50 (U-251): 4.07 µM | CC50 (U-251; [11]): 39.8 µM | TGI (U-251; read-out: pTGI (converted)): 15.1 µM | ILS at 40 mg/kg [10]: 11% | GI50 (KM12): 3.39 µM | CC50 (KM12; [11]): 34.7 µM | TGI (KM12; read-out: pTGI (converted)): 10.7 µM
